Test [1] concerns Schistosoma mansoni. Kind of test: Antischistosomal activity against Schistosoma mansoni isolated from infected Syrian golden hamsters assessed as worm mortality at 75 uM treated for overnight followed by drug washout measured on day 5 relative to control. The class given is functional.
Test [2] relates to Schistosoma mansoni. In words: Antischistosomal activity against Schistosoma mansoni isolated from infected Syrian golden hamsters assessed as worm mortality at 12.5 uM treated for overnight followed by drug washout measured on day 5 relative to control. The format is functional.
Test [3] relates to Schistosoma mansoni. In words: Antischistosomal activity against Schistosoma mansoni isolated from infected Syrian golden hamsters assessed as worm mortality at 50 uM treated for overnight followed by drug washout measured on day 5 relative to control. The format is functional.
Test [4] deals with Schistosoma mansoni. Kind of test: Antischistosomal activity against Schistosoma mansoni isolated from infected Syrian golden hamsters assessed as worm mortality at 5 uM treated for overnight followed by drug washout measured on day 5. The class given is functional.
In test [5] the test system is Schistosoma mansoni. Kind of test: Antischistosomal activity against Schistosoma mansoni isolated from infected Syrian golden hamsters assessed as worm mortality at 100 uM treated for overnight followed by drug washout measured on day 5 relative to control. The format is functional.
The test system of test [6] is Schistosoma mansoni. In words: Antischistosomal activity against Schistosoma mansoni isolated from infected Syrian golden hamsters assessed as worm mortality treated for overnight followed by drug washout measured on day 5. The class given is functional, organism-based. The settings on record: 120 h.
Test [7] deals with Schistosoma mansoni. In words: Antischistosomal activity against Schistosoma mansoni isolated from infected Syrian golden hamsters assessed as worm mortality at 25 uM treated for overnight followed by drug washout measured on day 5 relative to control. The format is functional.

These results are taken from ChEMBL document CHEMBL1649251, “Antischistosomal activity of hexadecyloxypropyl cyclic 9-(S)-[3-hydroxy-2-(phosphonomethoxy)propyl]adenine and other alkoxyalkyl esters of acyclic nucleoside phosphonates assessed by schistosome worm killing in vitro” (Antimicrob Agents Chemother, 2009).

A value given as a limit tells only on which side of the number the result lay.

By EC50 is commonly meant the concentration giving half of the maximal effect. For `CCCCCCCCCCCCCCCCCCOCCOP(=O)(O)CO[C@H](CO)Cn1cnc2c(N)nc(N)nc21`, the Activity in the test on Schistosoma mansoni [1] worked out at 40%; in the test on Schistosoma mansoni [2], 8%; with Schistosoma mansoni [3], 33%; in the test with Schistosoma mansoni [4] it was 7%; in the test with Schistosoma mansoni [5], 40%; in the test on Schistosoma mansoni [7], 14%. Further, in the test with Schistosoma mansoni [6], the EC50 is above 100 µM.
Turning to `CCCCCCCCCCCCCCCCOCCCOP1(=O)CO[C@@H](Cn2cnc3c(N)ncnc32)CO1` (stereo partly specified), the Activity is 84.6% in the test on Schistosoma mansoni [1]; 53.8% in the test on Schistosoma mansoni [2]; 78.6% in the test on Schistosoma mansoni [3]; 50% in the test on Schistosoma mansoni [4]; 93.3% with Schistosoma mansoni [5]; 69.2% in the test with Schistosoma mansoni [7]. Further, the EC50 with Schistosoma mansoni [6] is 5 µM.
As to `CCCCCCCCCCCCCCCCCCOCCOP(=O)(O)CO[C@H](CO)Cn1cnc2c(=O)[nH]c(N)nc21`, the Activity in the test on Schistosoma mansoni [1] turned out to be 36%; in the test on Schistosoma mansoni [2] it was 7%; with Schistosoma mansoni [3], 20%; with Schistosoma mansoni [4], 13%; in the test with Schistosoma mansoni [5], 33%; with Schistosoma mansoni [7] it was 15%. In addition, in the test with Schistosoma mansoni [6], the concentration giving a half-maximal response (EC50) was above 100 µM.
As to `CCCCCCCCCCCCCCCCOCCCOP1(=O)CO[C@@H](Cn2ccc(N)nc2=O)CO1` (stereo partly specified), the Activity in the test with Schistosoma mansoni [1] is on record as 64%; in the test on Schistosoma mansoni [2], 33%; in the test with Schistosoma mansoni [3] it was 67%; in the test with Schistosoma mansoni [4] it was 13%; in the test on Schistosoma mansoni [5], 100%; in the test on Schistosoma mansoni [7], 36%. Besides, in the test with Schistosoma mansoni [6], the EC50 came to 28 µM.
As for `Nc1ncnc2c1ncn2C[C@@H](CO)OCP(=O)(O)O`, the Activity was found to be 12.5% in the test with Schistosoma mansoni [1]; 6.25% in the test on Schistosoma mansoni [2]; 7% in the test with Schistosoma mansoni [3]; 6.7% in the test with Schistosoma mansoni [4]; 13% in the test with Schistosoma mansoni [5]; 7% with Schistosoma mansoni [7]. For the same compound, the EC50 with Schistosoma mansoni [6] is above 100 µM.
Turning to `CCCCCCCCCCCCCCCCOCCCOP(=O)(O)CO[C@H](CO)Cn1cnc2c(N)ncnc21`, the Activity with Schistosoma mansoni [1] is 28.6%; in the test with Schistosoma mansoni [2], 12.5%; in the test on Schistosoma mansoni [3] it was 32.3%; in the test with Schistosoma mansoni [4], 6.25%; in the test with Schistosoma mansoni [5], 30.8%; in the test on Schistosoma mansoni [7], 18.8%. The EC50 with Schistosoma mansoni [6] was above 100 µM.
Consider `CCCCCCCCCCCCCCCCCCOCCOP(=O)(O)CO[C@H](CO)Cn1cnc2c(N)ncnc21`, for which the Activity was 33% in the test on Schistosoma mansoni [1]; 12.5% in the test with Schistosoma mansoni [2]; 40% in the test with Schistosoma mansoni [3]; 12.5% in the test on Schistosoma mansoni [4]; 47% in the test on Schistosoma mansoni [5]; 25% in the test with Schistosoma mansoni [7]. In addition, the EC50 in the test with Schistosoma mansoni [6] was above 100 µM.
In the case of `O=C(C1CCCCC1)N1CC(=O)N2CCc3ccccc3C2C1` (stereo unspecified) [PRAZIQUANTEL], the Activity in the test on Schistosoma mansoni [1], in the test on Schistosoma mansoni [2], in the test with Schistosoma mansoni [3], in the test on Schistosoma mansoni [4], in the test on Schistosoma mansoni [5] and with Schistosoma mansoni [7] was 100% in each case. The EC50 with Schistosoma mansoni [6] was found to be 0.22 µM.
